From patent US20260165982A1, “COMPOSITIONS AND METHODS FOR DELIVERY OF NUCLEIC ACID THERAPEUTICS” (Entrada Therapeutics, Inc., priority 2022, published 2026)

System: HeLa cells
Assay: LNP cellular uptake / eGFP mRNA expression by FACS flow cytometry
Type: cell-based, Human
Conditions: eGFP mRNA cargo
Method: LNP cellular uptake for the LNP formulations in Table 10 was tested. HeLa cells (Human epithelial cells, ATCC) were seeded at 0.05×10^6 cells per well in 1000 μL DMEM media (Dulbecco's Modified Eagle Medium, GIBCO) containing 10% FBS (GIBCO) and 5% penicillin streptomycin (GIBCO) in 24-well plate. The LNP formulations of Table 10 containing the eGFP mRNA were prepared with a total treatment dose of 250 ng and 1000 ng eGFP mRNA per well in triplicates. The cells were incubated for 24 h at 37° C. Cells were then trypsinized and resuspended in PBS and centrifuged at 200 g for 5 min. The supernatant was removed, and the pelleted cells were redispersed in 500 μL of PBS+2% FBS per well and transferred to FACS tubes and read on a flow cytometry analyzer (BD FACSCanto™ II). The data presented are the mean fluorescent intensity of the signals from each cell treatment analyzed. For transfection efficiency, treated cells were gated for EGFP expression, and the data presented are the percentage of cells analyzed with higher EGFP expression than untreated cells. […] HeLa cells were treated with the various formulations for 24 hours before using fluorescence activated cell sorting (FACS) flow cytometry to quantify eGFP expression in the treated cells. The higher the mean fluorescence intensity, the greater the expression of eGFP, ant therefore, the greater the transfection efficiency.

CCCCCCCCCCCOC(=O)CCCCCN(CCO)CCCCCCCC(=O)OC(CCCCCCCC)CCCCCCCC [SM-102]
efficacy (transfection), findings from all the experiments of Example 2: more efficacious ionizable lipid than D-Lin-MC3-DMA
